These results are taken from paper PMC6522510 (Nature Communications, 2019).

Among the test systems are U937; MOLM-13; CMS; CHRF288-11; ML-2; MV4-11; CMK; M07e.
Holding throughout (parameters): species or system AML cell lines (8); Primary HTS, single concentration about 10 uM, Cell Titer Glo viability; log10 luminescence, per cent inhibition relative to cycloheximide control
Common to all, as to settings: 72 h, relative to cycloheximide control, log10 luminescence, inhibitor
In general terms: ATP-based viability assays read luminescence as a measure of living cells.

Read-outs that look alike come from different tables or passages of the source.

Compound `CCn1cc(-c2ccnc3[nH]ccc23)c(-c2cccc(NC(=O)Nc3ccc(OCc4ccccc4)cc3)c2)n1` [SJ000573320-1, R11459/78/21] gave a U937 %inh with U937 of 1.634%. Further, the MOLM-13 %inh in the test on MOLM-13 was found to be 71.46%. The CMS %inh with CMS came out at 4.452%. For the same compound, the CHRF288-11 %inh in the test on CHRF288-11 came out at 55.15%. For the same compound, in the test on ML-2, the ML-2 %inh was determined as 18.08%. Also, in the test with MV4-11, the MV4-11 %inh is listed as 7.18%. Besides, the CMK %inh with CMK was determined as 77.69%. The M07e %inh in the test on M07e came to 13.09%.
In the test on U937, `NC(=O)c1sc(-n2cnc3ccc(C(F)(F)F)cc32)cc1OCc1ccccc1Br` [SJ000573167-1, U19121/196/1] had a U937 %inh of 43.5%. Further, the MOLM-13 %inh in the test on MOLM-13 stood at 2.5%. Moreover, the CMS %inh with CMS is 15.36%. Moreover, the CHRF288-11 %inh with CHRF288-11 was 1.336%. For the same compound, the ML-2 %inh in the test with ML-2 is listed as 22.34%. Moreover, the MV4-11 %inh in the test with MV4-11 is reported as 1.988%. In addition, the CMK %inh in the test with CMK is given as -1.461%. Further, the M07e %inh in the test with M07e is reported as 5.031%.
Take `C[C@H]1O[C@@H](O[C@H]2[C@@H](O)C[C@H](O[C@H]3[C@@H](O)C[C@H](O[C@H]4CC[C@@]5(C)[C@H](CC[C@@H]6[C@@H]5C[C@@H](O)[C@]5(C)[C@@H](C7=CC(=O)OC7)CC[C@]65O)C4)O[C@@H]3C)O[C@@H]2C)C[C@H](O)[C@@H]1O` [SJ000285739-6, DIGOXIN]: the U937 %inh in the test on U937 (U937 %inh, 10 µM) is 81.18%. In addition, the MOLM-13 %inh in the test with MOLM-13 (MOLM-13 %inh, 10 µM) is given as 91.77%. In the test on CMS (CMS %inh, 10 µM), the CMS %inh amounted to 96.75%. Also, in the test with CHRF288-11 (CHRF288-11 %inh, 10 µM), the CHRF288-11 %inh stood at 118.6%. For the same compound, the ML-2 %inh with ML-2 (ML-2 %inh, 10 µM) stood at 63.97%. The MV4-11 %inh with MV4-11 (MV4-11 %inh, 10 µM) is 80.5%. Besides, the CMK %inh in the test with CMK (CMK %inh, 10 µM) is 86.52%. The M07e %inh in the test on M07e (M07e %inh, 10 µM) is given as 102.6%.
In the test on U937, `NC1=NC(=O)/C(=C/c2ccc3ncccc3c2)S1` [SJ000581167-1] yielded a U937 %inh of 10.35%. For the same compound, the MOLM-13 %inh with MOLM-13 was determined as 12.5%. Further, the CMS %inh in the test with CMS worked out at 1.297%. In the test with CHRF288-11, the CHRF288-11 %inh was found to be 7.843%. Further, the ML-2 %inh in the test on ML-2 amounted to 6.393%. For the same compound, the MV4-11 %inh in the test on MV4-11 was found to be 20.86%. The CMK %inh in the test on CMK is listed as 14.91%. In the test on M07e, the M07e %inh is reported as -0.544%.
With `Fc1cccc(COc2ccc(Nc3ncnc4sc(-c5ccco5)cc34)cc2Cl)c1` [SJ000573002-1, U22476/39/2], the U937 %inh in the test with U937 turned out to be 0.5844%. The MOLM-13 %inh in the test with MOLM-13 is given as -2.902%. Also, the CMS %inh in the test on CMS is on record as 0.3499%. The CHRF288-11 %inh in the test with CHRF288-11 is -4.95%. In addition, the ML-2 %inh in the test on ML-2 was 0.9644%. The MV4-11 %inh with MV4-11 is -1.439%. Further, the CMK %inh in the test on CMK is given as -2.703%. For the same compound, in the test with M07e, the M07e %inh was -3.433%.
In the test with U937, `COc1cc2ncnc(Nc3ccc4c(cnn4Cc4ccccc4)c3)c2cc1OC` [SJ000573101-1, R143/104/1] had a U937 %inh of 6.042%. Moreover, in the test with MOLM-13, the MOLM-13 %inh turned out to be 25.02%. Moreover, the CMS %inh in the test with CMS is reported as 32.19%. For the same compound, the CHRF288-11 %inh with CHRF288-11 came to 5.092%. Moreover, the ML-2 %inh with ML-2 is reported as -2.157%. Further, in the test with MV4-11, the MV4-11 %inh was 12.83%. In addition, the CMK %inh in the test with CMK is given as 0.8373%. Further, the M07e %inh in the test on M07e is 1.834%.
For the compound `Oc1ncnc2[nH]ncc12` [SJ000285807-6, ALLOPURINOL], the U937 %inh in the test with U937 worked out at 0.524%. Besides, the MOLM-13 %inh with MOLM-13 is -2.79%. Moreover, the CMS %inh with CMS is -3.837%. Also, the CHRF288-11 %inh in the test with CHRF288-11 is given as 0.3228%. Further, the ML-2 %inh with ML-2 is reported as -1.752%. Further, in the test with MV4-11, the MV4-11 %inh was -0.8311%. In addition, the CMK %inh in the test with CMK was -2.837%. In addition, the M07e %inh with M07e is on record as -3.01%.
In the test on U937, `Nc1nccc(C#Cc2cncnc2Nc2ccc(OCc3cccc(F)c3)c(Cl)c2)n1` [SJ000573310-1, U16767/158/1] had a U937 %inh of 80.64%. For the same compound, the MOLM-13 %inh in the test on MOLM-13 turned out to be 9.977%. Also, the CMS %inh with CMS came to 85.29%. For the same compound, the CHRF288-11 %inh with CHRF288-11 is 34.34%. For the same compound, the ML-2 %inh in the test with ML-2 stood at 58.71%. In addition, in the test with MV4-11, the MV4-11 %inh was found to be 82.16%. Besides, in the test with CMK, the CMK %inh was 11.36%. In the test on M07e, the M07e %inh is 42.98%.
